Assays:
[1] = tested on: Kuramochi cells labeled with mApple-H2B; experiment: IncuCyte Cell Proliferation Assay; type: cell-based; conditions: 72 h
Outline: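 Cells imaged at 0 and 72 h after compound treatment (10 points, ½ log dilution, 20 μM top), with fluorescent nuclei counted. Fold change in count was normalized to DMSO wells and fitted to dose-response curves to give GI50.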

Kuramochi cells = experiment: BrdU Cell Proliferation Assay; type: cell-based; conditions: read-out: BrdU - KURAMOCHI.1: IC50
Outline: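 Kuramochi cells were seeded at 2,000 cells/well, adhered overnight, then treated with a 10-point, 3-fold compound dilution series for 4 days. Proliferation was measured by a 1-hour BrdU pulse, anti-BrdU peroxidase colorimetric ELISA and 450 nm absorbance. Values were background-subtracted and normalized to DMSO wells.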

| Compound | IC50 [1] [µM] | IC50 (Kuramochi cells) [µM] |
| --- | --- | --- |
| C[C@@H](OCC1CCCCC1)[C@H](NC(=O)C1CN(C(=O)c2cnn(Cc3ccccc3)c2)CC12CN(C(=O)[C@H]1CC1(C)C)C2)C(=O)N1CCOCC1 (some centres unmarked) [I-152 mixture] | ≤ 0.5 | ≤ 0.5 |
| C[C@@H](OCC1CCCCC1)[C@H](NC(=O)[C@@H]1CN(C(=O)c2cnn(Cc3ccccc3)c2)CC12CN(C(=O)[C@H]1CC1(C)C)C2)C(=O)N1CCOCC1 [I-152A] | ≤ 0.5 | ≤ 0.5 |
| C[C@@H](OCC1CCCCC1)[C@H](NC(=O)[C@H]1CN(C(=O)c2cnn(Cc3ccccc3)c2)CC12CN(C(=O)[C@H]1CC1(C)C)C2)C(=O)N1CCOCC1 [I-152B] | 5 to 20 | > 10 |
| C[C@@H](OCC1CCCCC1)[C@H](NC(=O)C1CN(C(=O)c2cnn(Cc3ccccc3)c2)CC12CN(C(=O)[C@H]1CC1(C)C)C2)C(=O)N1CC(C)(C)C1 (some centres unmarked) [I-153 mixture] | ≤ 0.5 | ≤ 0.5 |
| C[C@@H](OCC1CCCCC1)[C@H](NC(=O)[C@@H]1CN(C(=O)c2cnn(Cc3ccccc3)c2)CC12CN(C(=O)[C@H]1CC1(C)C)C2)C(=O)N1CC(C)(C)C1 [I-153A] | ≤ 0.5 | ≤ 0.5 |
| C[C@@H](OCC1CCCCC1)[C@H](NC(=O)[C@@H]1CN(C(=O)c2cn[nH]c2)CC12CN(C(=O)[C@H]1CC1(C)C)C2)C(=O)N1CCC(F)(F)CC1 [I-154A] | 0.5 to 5 | 0.5 to 5 |
| CNC(=O)[C@@H](NC(=O)[C@H]1CN(C(=O)c2cnc(C)s2)CC12CN(C(=O)[C@H]1CC1(C)C)C2)[C@@H](C)OCC1CCCCC1 [I-156B] | > 20 | > 10 |
| CNC(=O)[C@@H](NC(=O)[C@@H]1CN(C(=O)c2scnc2Cl)CC12CN(C(=O)[C@H]1CC1(C)C)C2)[C@@H](C)OCC1CCCCC1 [I-157A] | 0.5 to 5 | 0.5 to 5 |
| CNC(=O)[C@@H](NC(=O)[C@@H]1CN(C(=O)c2sc(COC)nc2C)CC12CN(C(=O)[C@H]1CC1(C)C)C2)[C@@H](C)OCC1CCCCC1 [I-162A] | 5 to 20 | 0.5 to 5 |
| CNC(=O)[C@@H](NC(=O)[C@@H]1CN(C(=O)c2scnc2C(F)(F)F)CC12CN(C(=O)[C@H]1CC1(C)C)C2)[C@@H](C)OCC1CCCCC1 [I-163A] | > 20 | > 10 |
| C[C@@H](OCC1CCC(F)(F)CC1)[C@H](NC(=O)[C@@H]1CN(C(=O)c2cnn(Cc3ccc(F)cc3)c2)CC12CN(C(=O)[C@H]1CC1(C)C)C2)C(=O)N1CCC(F)(F)CC1 [I-164A] | ≤ 0.5 | ≤ 0.5 |
| C[C@@H](OCC1CCC(F)(F)CC1)[C@H](NC(=O)[C@H]1CN(C(=O)c2cnn(Cc3ccc(F)cc3)c2)CC12CN(C(=O)[C@H]1CC1(C)C)C2)C(=O)N1CCC(F)(F)CC1 [I-164B] | 0.5 to 5 | 0.5 to 5 |
| CNC(=O)[C@@H](NC(=O)[C@@H]1CN(C(=O)c2cnn(Cc3ccccc3)c2)CC12CN(C(=O)[C@H]1CC1(C)C)C2)[C@@H](C)OCC1CCCCCC1 [I-166A] | ≤ 0.5 | ≤ 0.5 |
| CNC(=O)[C@@H](NC(=O)[C@@H]1CN(C(=O)c2cnn(Cc3ccccc3)c2)CC12CN(C(=O)C(C)(C)C)C2)[C@@H](C)OCC1CCCCC1 [I-174A] | 0.5 to 5 | 0.5 to 5 |
| CNC(=O)[C@@H](NC(=O)[C@@H]1CN(C(=O)c2cnc(COC(C)(C)C)s2)CC12CN(C(=O)[C@H]1CC1(C)C)C2)[C@@H](C)OCC1CCCCC1 [I-175A] | ≤ 0.5 | ≤ 0.5 |
| CNC(=O)[C@@H](NC(=O)[C@H]1CN(C(=O)c2cnc(COC(C)(C)C)s2)CC12CN(C(=O)[C@H]1CC1(C)C)C2)[C@@H](C)OCC1CCCCC1 [I-175B] | 5 to 20 | > 10 |
| C[C@@H](OCc1ccccc1)[C@H](NC(=O)[C@@H]1CN(C(=O)c2cnn(Cc3ccccc3)c2)CC12CN(C(=O)[C@H]1CC1(C)C)C2)C(N)=O [I-176A] | > 20 | > 10 |
| CNC(=O)[C@@H](NC(=O)[C@@H]1CN(C(=O)c2cnc(CC3CC3)s2)CC12CN(C(=O)[C@H]1CC1(C)C)C2)[C@@H](C)OCC1CCCCC1 [I-177A] | 5 to 20 | 0.5 to 5 |
| CNC(=O)[C@@H](NC(=O)[C@@H]1CN(C(=O)c2cnc(C3CC3)s2)CC12CN(C(=O)[C@H]1CC1(C)C)C2)[C@@H](C)OCC1CCCCC1 [I-178A] | 5 to 20 | > 10 |
| CNC(=O)[C@@H](NC(=O)[C@@H]1CN(C(=O)c2cnc(Cl)s2)CC12CN(C(=O)[C@H]1CC1(C)C)C2)[C@@H](C)OCC1CCCCC1 [I-189A] | 5 to 20 | > 10 |
| CNC(=O)[C@@H](NC(=O)[C@H]1CN(C(=O)c2cnc(Cl)s2)CC12CN(C(=O)[C@H]1CC1(C)C)C2)[C@@H](C)OCC1CCCCC1 [I-189B] | > 20 | > 10 |
| CC1(C)C[C@@H]1C(=O)N1CC2(CN(C(=O)c3cnn(Cc4ccccc4)c3)C[C@H]2C(=O)NCc2nnc[nH]2)C1 [I-191A] | > 20 | > 10 |

| Compound | IC50 [1] [µM] | IC50 (Kuramochi cells) [µM] |
| --- | --- | --- |
| CC1(C)C[C@@H]1C(=O)N1CC2(CN(C(=O)c3cnn(Cc4ccccc4)c3)C[C@@H]2C(=O)NCc2nnc[nH]2)C1 [I-191B] | > 20 | > 10 |
| C[C@@H](OCC1CCCCC1)[C@H](NC(=O)C1CN(C(=O)c2cncs2)CC12CN(C(=O)[C@H]1CC1(C)C)C2)C(=O)N1CCC[C@H](CO)C1 (some centres unmarked) [I-193] | ≤ 0.5 | ≤ 0.5 |
| C[C@@H](OCC1CCCCC1)[C@H](NC(=O)C1CN(C(=O)c2cnn(Cc3ccccc3)c2)CC12CN(C(=O)[C@H]1CC1(C)C)C2)C(=O)N1CCCCC1 (some centres unmarked) [I-194 mixture] | ≤ 0.5 | ≤ 0.5 |
| C[C@@H](OCC1CCCCC1)[C@H](NC(=O)[C@@H]1CN(C(=O)c2cnn(Cc3ccccc3)c2)CC12CN(C(=O)[C@H]1CC1(C)C)C2)C(=O)N1CCCCC1 [I-194A, (S)-6-(1-benzyl-1H-pyrazole-4-carbonyl)-N-((2S,3R)-3-(cyclohexylmethoxy)-1-oxo-1-(piperidin-1-yl)butan-2-yl)-2-((S)-2,2-dimethylcyclopropane-1-carbonyl)-2,6-diazaspiro[3.4]octane-8-carboxamide] | ≤ 0.5 | ≤ 0.5 |
| C[C@@H](OCC1CCCCC1)[C@H](NC(=O)[C@H]1CN(C(=O)c2cnn(Cc3ccccc3)c2)CC12CN(C(=O)[C@H]1CC1(C)C)C2)C(=O)N1CCCCC1 [I-194B] | 5 to 20 | 0.5 to 5 |
| COC[C@@H]1CCCN(C(=O)[C@@H](NC(=O)C2CN(C(=O)c3cncs3)CC23CN(C(=O)[C@H]2CC2(C)C)C3)[C@@H](C)OCC2CCCCC2)C1 (some centres unmarked) [I-195] | ≤ 0.5 | ≤ 0.5 |
| COC[C@H]1CCCN(C(=O)[C@@H](NC(=O)C2CN(C(=O)c3cncs3)CC23CN(C(=O)[C@H]2CC2(C)C)C3)[C@@H](C)OCC2CCCCC2)C1 (some centres unmarked) [I-196 mixture] | 0.5 to 5 | ≤ 0.5 |
| COC[C@H]1CCCN(C(=O)[C@@H](NC(=O)[C@@H]2CN(C(=O)c3cncs3)CC23CN(C(=O)[C@H]2CC2(C)C)C3)[C@@H](C)OCC2CCCCC2)C1 [I-196A, (S)—N-((2S,3R)-3-(cyclohexylmethoxy)-1-((S)-3-(methoxymethyl)piperidin-1-yl)-1-oxobutan-2-yl)-2-((S)-2,2-dimethylcyclopropanecarbonyl)-6-(thiazole-5-carbonyl)-2,6-diazaspiro[3.4]octane-8-carboxamide] | ≤ 0.5 | ≤ 0.5 |
| COC[C@H]1CCCN(C(=O)[C@@H](NC(=O)[C@H]2CN(C(=O)c3cncs3)CC23CN(C(=O)[C@H]2CC2(C)C)C3)[C@@H](C)OCC2CCCCC2)C1 [I-196B] | 0.5 to 5 | ≤ 0.5 |
| C[C@@H](OCC1CCCCC1)[C@H](NC(=O)C1CN(C(=O)c2cncs2)CC12CN(C(=O)[C@H]1CC1(C)C)C2)C(=O)N1CCC[C@@H](CO)C1 (some centres unmarked) [I-197] | ≤ 0.5 | 0.5 to 5 |
| C[C@@H](OCC1CCCCC1)[C@H](NC(=O)[C@@H]1CN(C(=O)c2cncs2)CC12CN(C(=O)[C@H]1CC1(C)C)C2)C(=O)N1CCOCC1 [I-198] | ≤ 0.5 | ≤ 0.5 |
| C[C@@H](OCC1CCC(F)(F)CC1)[C@H](NC(=O)[C@@H]1CN(C(=O)c2cnn(Cc3ccc(F)cc3)c2)CC12CN(C(=O)[C@H]1CC1(C)C)C2)C(N)=O [I-203] | 0.5 to 5 | 0.5 to 5 |
| CC1(C)C[C@@H]1C(=O)N1CC2(CN(C(=O)c3cnn(Cc4ccccc4)c3)C[C@H]2C(=O)N[C@@H]2CCN(c3ccccc3)C2)C1 [I-207] | 5 to 20 | ≤ 0.5 |
| CNC(=O)[C@@H](NC(=O)[C@@H]1CN(C(=O)c2sc(Cl)nc2C)CC12CN(C(=O)[C@H]1CC1(C)C)C2)[C@@H](C)OCC1CCCCC1 [I-208A] | ≤ 0.5 | ≤ 0.5 |
| CNC(=O)[C@@H](NC(=O)[C@@H]1CN(C(=O)c2sc(C)nc2C)CC12CN(C(=O)[C@H]1CC1(C)C)C2)[C@@H](C)OCC1CCCCC1 [I-213A] | 0.5 to 5 | 0.5 to 5 |
| CNC(=O)[C@@H](NC(=O)[C@H]1CN(C(=O)c2sc(C)nc2C)CC12CN(C(=O)[C@H]1CC1(C)C)C2)[C@@H](C)OCC1CCCCC1 [I-213B] | > 20 | > 10 |
| CNC(=O)[C@@H](NC(=O)[C@H]1CN(C(=O)c2scnc2C2CCCC2)CC12CN(C(=O)[C@H]1CC1(C)C)C2)[C@@H](C)OCC1CCCCC1 [I-224A] | > 20 | > 10 |
| CNC(=O)[C@@H](NC(=O)[C@@H]1CN(C(=O)c2sc(C(C)C)nc2C)CC12CN(C(=O)[C@H]1CC1(C)C)C2)[C@@H](C)OCC1CCCCC1 [I-227A] | > 20 | > 10 |
| C[C@@H](OCC1CCC(F)(F)CC1)[C@H](NC(=O)[C@@H]1CN(C(=O)c2cn[nH]c2)CC12CN(C(=O)[C@H]1CC1(C)C)C2)C(=O)N1CCC(F)(F)CC1 [I-228A] | > 20 | > 10 |
| CNC(=O)[C@@H](NC(=O)[C@@H]1CN(C(=O)c2cnc(C(C)(C)C)s2)CC12CN(C(=O)[C@H]1CC1(C)C)C2)[C@@H](C)OCC1CCCCC1 [I-229A] | 0.5 to 5 | 0.5 to 5 |
| CNC(=O)[C@@H](NC(=O)[C@@H]1CN(C(=O)c2scnc2C(C)(C)C)CC12CN(C(=O)[C@H]1CC1(C)C)C2)[C@@H](C)OCC1CCCCC1 [I-231A] | > 20 | > 10 |

— patent publication US12065445B2, “CDK2 inhibitors and methods of using the same” (Cedilla Therapeutics, Inc., priority 2021, dated 2024)
